Converted amounts (≈) assume the structure as drawn. Read-outs that look alike come from different tables or passages of the source.
Key:
[1] = Cellular toxicity against normal fibroblasts WI-38 (MTT); format: cell-based; conditions: human
Protocol: All selected top-scoring compounds were tested for their cellular toxicity against human fibroblasts cell line (WI-38). Cell line (WI-38; ATCC: CCL-75) was maintained in earth RPMI 1640 medium comprising 10% heat-inactivated fetal bovine serum (FBS) and grown at 37 °C and 5% CO2. The cell line was seeded on 96-well cell culture plates (2 × 10^4 cells/well). Cells were stimulated with tested compounds at different concentrations (from 1 to 50 µM) overnight in triplicates. Doxorubicin was used as a positive control. Cell viability was assessed by MTT assay. To normalize cell viability values, each plate included a triplicate of untreated cells considered as 100% viability, and a triplicate of cells treated with a cytotoxic mixture (200 ng/mL TNF, 200 ng/mL CD95L, 200 ng/mL TRAIL, 5 μg/mL CHX, 1% (w/v) sodium azide […]) considered as 0% viability. All other viability values were normalized according to the averages of these triplicates and analyzed by the Graph Pad Prism 5 software (La Jolla, CA, USA).

[2] = test system: tested bacterial strains (E. coli MDR, MRSA, VRSA); experiment: Antibacterial evaluation, tested bacterial strains taken together; format: cell-based; conditions: for MIC: Escherichia coli, E. coli MDR, MRSA, VRSA
Protocol: (§1) The selected top-scoring hits were evaluated for their antibacterial effect against two clinical multidrug-resistant strains of enterotoxigenic E. coli. Both isolates were isolated as clinical samples from Beni Suef general hospital, Beni Suef, Egypt. […] MRSA (ATCC 25529) and VRSA (clinical isolate from Beni Suef general hospital, Beni Suef, Egypt) were also used to further evaluate the tested compounds against resistant Gram-positive bacteria.
(§2) Minimum inhibitory concentrations for the test compounds were analyzed following the standard agar dilution method using Meuller-Hinton (MH) agar medium against different Gram-negative and positive bacteria (Table 1). Firstly, the tested compounds were prepared as a stock suspension with a 10 mg/mL final concentration in DMSO. Subsequently, the prepared stocks were diluted in 10 mL molten soft agar (0.5% agar) to obtain a concentration range from 1–64 µg/mL, then mixed and poured over a surface of MH agar (2% agar) plates and left for solidification. Finally, exponentially grown (O.D 600 nm of 0.6) test strains (Table 1) were diluted to a final density of 10^6 CFU/mL in MH broth and spotted (1 µL/spot) over the soft agar. Then, the plates were left for drying and incubated at 37 °C for 18–20 h. Controls were conducted using DMSO seeded soft agar. At the end of the experiment, the MIC for each compound was identified as the minimum concentration that inhibited the growth of the tested strain. The experiments were carried out in triplicates.

[3] = test system: E. coli (MDR) a clinical isolate; experiment: MIC, agar dilution method, E. coli MDR a; format: cell-based; conditions: Escherichia coli
Protocol: as §1, §2

[4] = test system: E. coli (MDR) b clinical isolate; experiment: MIC, agar dilution method, E. coli MDR b; format: cell-based; conditions: Escherichia coli, read-out: MIC E. coli (MDR) b
Protocol: as §1, §2

[5] = target: T1, E. coli gyrase B43 domain (Gyr-B) (Escherichia coli, UniProt P0AES6); experiment: biochemical; format: biochemical
T1 construct: 20 μL of the enzyme (E. coli gyrase B43 domain; 20 μM concentration); purchased Inspiralis ATPG001
Protocol: (§3) Ddl-B and Gyr-B activity assays were performed according to the manufacturer protocols (ProFoldin, Catalogue No. DDA100KE, and Inspiralis, Catalogue No. ATPG001, UK).
Gyr-B assay measured the capability of the tested compounds to hinder the ATPase activity of Gyr-B subunits. This assay links the hydrolysis of ATP by gyrase to the conversion of NADH to NAD^+, which can be measured by a change in absorbance at 340 nm. The assay reactions and detection were performed using a 96-well plate. […] First, the assay mix was prepared by mixing 20 μL of the assay buffer (50 mM Tris.HCl (pH 7.5), 1 mM EDTA, 5 mM magnesium chloride, 5 mM DTT, 10% (w/v) glycerol), 1 μL phosphoenolpyruvate (80 mM in water), 1.5 μL pyruvate kinase/lactate dehydrogenase stock, 2 μL NADH (20 mM in water), and 58.8 μL water. Thereafter, 63.3 μL of assay mix and 10 μL of the test compound solution and 20 μL of the enzyme (E. coli gyrase B43 domain; 20 μM concentration) were added into the wells and mixed by pipetting. After incubation for 10 min at 25 °C, 6.7 uL of ATP (30 mM) was added to each well. After 60 min of incubation at 25 °C, the absorbance was measured at 340 nm.

VRSA (clinical isolate) = experiment: MIC, agar dilution method, VRSA; format: cell-based, S. aureus; conditions: for MIC: Staphylococcus aureus, VRSA, read-out: MIC VRSA
Protocol: as §1, §2

[6] = target: T2, E. coli DAla:D-Ala ligase (Ddl-B) (Escherichia coli, UniProt P07862); experiment: Ddl-B enzymatic activity assay (inorganic phosphate, absorbance 650 nm); format: biochemical
T2 construct: purchased ProFoldin DDA100KE
Protocol: as §3
Ddl-B enzymatic activity assay is based on measuring the inorganic phosphate generated from the D-Alanine: D-Alanine ligation reaction. The inorganic phosphate is detected by absorbance at 650 nm. The assay reactions and detection were performed by using a 96-well plate. Different concentrations of the test compounds and the reference inhibitor D-cycloserine were prepared in DMSO (from 10 µM to 1000 µM). […] Thereafter, 33 μL of 10× enzyme substrate was prepared by mixing 3.3 μL of 100× enzyme substrate with 29.7 μL of water. Finally, 27 μL of the premix with 3 μL of the 10× enzyme substrate in each well were mixed. After 60 min of incubation at 37 °C, 45 μL of MPA3000 dye was added into the 30 μL of the reaction mixture. After 5 min of incubation, absorbance was measured at 650 nm.

MRSA (ATCC 25529) = experiment: MIC, agar dilution method, MRSA; format: cell-based, S. aureus; conditions: Staphylococcus aureus, read-out: MIC MRSA
Protocol: as §1, §2

[7] = WI-38 normal fibroblast cells, WI-38, 1 to 50 µM overnight, MTT, read-out: CC50
[8] = range 1-64 µg/mL, 37 °C, 18-20 h, read-out: MIC E. coli (MDR) a
[9] = range 1-64 µg/mL, 37 °C, 18-20 h
[10] = 10-1000 µM tested, read-out: IC50 Ddl-B

## O=C1c2c(O)cccc2C([C@@H]2O[C@H](CO)[C@@H](O)[C@H](O)[C@H]2O)c2cc(CO)cc(O)c21 (some centres unmarked) [Aloin]
[1]; [7]
  CC50: 34.7 ± 0.94 µM
[2]
  MIC: > 64 µg/mL
[3]; [8]
  MIC: > 64 µg/mL
[4]; [9]
  MIC: > 64 µg/mL
[5]
  Gyr-B inhibition in words: weak inhibition
  IC50: 22.4 ± 2.1 µM
  Ki: 10.5 ± 1.6 µM
VRSA (clinical isolate); [9]
  MIC: > 64 µg/mL
[6]
  Ddl-B inhibition in words: weak inhibition
[6]; [10]
  IC50: 927 ± 7.4 µM
[6]; read-out: Ki Ddl-B
  Ki: 529 ± 12.3 µM
MRSA (ATCC 25529); [9]
  MIC: > 64 µg/mL

## Cc1cc(O)c2c(c1)C(=O)c1cccc(O)c1C2=O [Chrysophanol]
[1]
  CC50: 48.1 ± 1.39 µM
[2]
  MIC: 2 to 4 µg/mL (≈ 7.87 to 15.7 µM)
[3]; [8]
  MIC: 4 µg/mL (≈ 15.7 µM)
[4]; [9]
  MIC: 4 µg/mL (≈ 15.7 µM)
[5]
  IC50: 1.5 ± 0.5 µM
  Ki: 0.83 ± 0.2 µM
VRSA (clinical isolate); [9]
  MIC: 4 µg/mL (≈ 15.7 µM)
[6]
  Ddl-B inhibition in words: more potent
  IC50: 236 ± 8.9 µM
  Ki: 105 ± 4.9 µM
MRSA (ATCC 25529); [9]
  MIC: > 64 µg/mL

## COc1ccc(Cc2nccc3cc(OC)c(OC)cc23)cc1OC [Papaverine]
[1]
  CC50: 36.8 ± 0.93 µM
[2]
  Antibacterial activity in words, all tested bacteria: inactive
[3]; [8]
  MIC: > 64 µg/mL
[4]; [9]
  MIC: > 64 µg/mL
[5]
  IC50: > 100 µM
VRSA (clinical isolate); [9]
  MIC: > 64 µg/mL
MRSA (ATCC 25529); [9]
  MIC: > 64 µg/mL

## O=C1c2ccccc2C(=O)c2ccccc21 [Anthraquinone]
[2]
  Antibacterial activity in words, all tested bacteria: inactive
[3]; [8]
  MIC: > 64 µg/mL
[4]; [9]
  MIC: > 64 µg/mL
[5]
  Gyr-B inhibition in words: inactive
  IC50: > 100 µM
VRSA (clinical isolate); [9]
  MIC: 64 µg/mL (≈ 307 µM)
[6]
  Ddl-B inhibition in words: inactive
MRSA (ATCC 25529); [9]
  MIC: > 64 µg/mL

## Cc1cc(O)c2c(c1)C(=O)c1cc(O)cc(O)c1C2=O [Emodin]
[1]
  CC50: 49.2 ± 1.39 µM
[2]
  MIC: 2 to 4 µg/mL (≈ 7.4 to 14.8 µM)
[3]; [8]
  MIC: 2 µg/mL (≈ 7.4 µM)
[4]; [9]
  MIC: 2 µg/mL (≈ 7.4 µM)
[5]
  IC50: 0.81 ± 0.3 µM
  Ki: 0.22 ± 0.1 µM
VRSA (clinical isolate); [9]
  MIC: 2 µg/mL (≈ 7.4 µM)
[6]
  Ddl-B inhibition in words: more potent
[6]; [10]
  IC50: 216 ± 5.6 µM
[6]; read-out: Ki Ddl-B
  Ki: 102 ± 4.8 µM
MRSA (ATCC 25529); [9]
  MIC: 2 µg/mL (≈ 7.4 µM)

## O=C1c2ccccc2C(=O)c2c1ccc(O)c2O [Alizarin]
[1]; WI-38, 1 to 50 µM overnight, MTT, read-out: CC50
  CC50: 25.9 ± 0.69 µM
[3]; read-out: MIC E. coli
  MIC: 64 µg/mL (≈ 266 µM)
[3]; read-out: MIC E. coli (MDR) a
  MIC: 64 µg/mL (≈ 266 µM)
[4]
  MIC: > 64 µg/mL
[5]
  Gyr-B inhibition in words: moderately inhibited
  IC50: 17.9 ± 1.2 µM
  Ki: 10.4 ± 1.1 µM
VRSA (clinical isolate)
  MIC: > 64 µg/mL
VRSA (clinical isolate); [9]
  MIC VRSA: >64 µg/mL
[6]
  Ddl-B inhibition in words: moderately inhibited
[6]; [10]
  IC50: 468 ± 6.5 µM
[6]; read-out: Ki Ddl-B
  Ki: 220 ± 4.3 µM
MRSA (ATCC 25529)
  MIC: 64 µg/mL (≈ 266 µM)

## CC(C)C1=CC2=CC[C@@H]3[C@](C)(CCC[C@@]3(C)C(=O)O)[C@H]2CC1 [Abietic acid]
[1]
  CC50: > 50 µM
[2]
  MIC: 16 to 64 µg/mL (≈ 52.9 to 212 µM)
[3]; [8]
  MIC: 64 µg/mL (≈ 212 µM)
[4]; [9]
  MIC: 16 µg/mL (≈ 52.9 µM)
[5]
  IC50: 1.4 ± 0.4 µM
  Ki: 0.77 ± 0.1 µM
VRSA (clinical isolate); [9]
  MIC: 16 µg/mL (≈ 52.9 µM)
[6]
  Ddl-B inhibition in words: inactive
  IC50: > 1000 µM
  Ki: > 1000 µM
MRSA (ATCC 25529); [9]
  MIC: > 64 µg/mL

## COc1cc(O)c2c(c1)C(=O)c1cc(C)cc(O)c1C2=O [Physcion]
[1]; [7]
  CC50: > 50 µM
[3]; [8]
  MIC: 2 µg/mL (≈ 7.04 µM)
[4]; [9]
  MIC: 2 µg/mL (≈ 7.04 µM)
[5]
  IC50: 10.9 ± 0.5 µM
  Ki: 6.6 ± 0.9 µM
VRSA (clinical isolate); [9]
  MIC: 2 µg/mL (≈ 7.04 µM)
[6]
  Ddl-B inhibition in words: more potent
[6]; [10]
  IC50: 244 ± 7.2 µM
[6]; read-out: Ki Ddl-B
  Ki: 119 ± 9.1 µM
MRSA (ATCC 25529); [9]
  MIC: 2 µg/mL (≈ 7.04 µM)
